17 compounds from US9725463B2, “Substituted heterocyclic compounds as CRAC modulators” (LUPIN LIMITED, priority 2013, dated 2017) can be followed below.

Structures are written as SMILES.

This assay has as its system IL-2 secretion by Jurkat T cells. Nature of the assay: Inhibition of IL-2 secretion. The assay is classed as cell-based. The note with it: Homo sapiens; Jurkat T cells stimulated with PHA, 20 to 24 hours, IL-2 by ELISA. How it is done:
The CRAC channel modulatory activity of the compounds were thus evaluated by measuring the secretion of IL-2 by antigen stimulated T-cells in vitro. Alternatively, such activity can also be evaluated by assay methods known to one skilled in the art.
Inhibition of IL-2 secretion: Jurkat T cells were seeded at a density of 0.5 to 1 million cells per well in RPMI medium. Test compounds from this invention were added to the cells at different concentrations. This was followed by the addition of PHA, a T cell mitogen after 10 minutes. The cells were then incubated for 20 to 24 hours in a CO2 incubator at 37° C. After incubation with the compounds, cells were centrifuged, the supernatant was collected and processed for ELISA to quantitate the amount of IL-2 secreted. A commercial ELISA kit (R&D Systems, Inc. Minneapolis, Minn., USA) was used to estimate the IL-2 concentrations. Amount of IL-2 secreted by cells stimulated with PHA was considered as a 100% maximal signal and the decrease in amount of IL-2 secreted by cells treated with the test compounds was expressed as percent inhibition of the maximal signal. The dose response data was analyzed using 4-parametric sigmoidal dose response (variable slope) curve-fit.
In general terms: An ELISA detects its analyte on a solid surface through an enzyme-linked reagent.
For the compound `CN1C(=O)COc2c1ncc(-c1ccc(NC(=O)c3c(F)cccc3F)cc1)c2C1CC1` [Example 112, N-(4-(8-Cyclopropyl-4-methyl-3-oxo-3,4-dihydro-2H-pyrido[3,2-b][1,4]oxazin-7-yl)phenyl)-2,6-difluorobenzamide], the IC50 lay within 25 to 50 nM. Compound `CN1C(=O)COc2cc(-c3ccc(NC(=O)c4c(F)cccc4F)cc3)c(C3CC3)cc21` [Example 113, N-(4-(6-Cyclopropyl-4-methyl-3-oxo-3,4-dihydro-2H-benzo[b][1,4]oxazin-7-yl)phenyl)-2,6-difluorobenzamide] gave an IC50 below 25 nM. Turning to `CN1C(=O)COc2cc(-c3ccc(NCc4c(F)cccc4F)cc3)c(C3CC3)cc21` [Example 114, 6-Cyclopropyl-7-(4-((2,6-difluorobenzyl)amino)phenyl)-4-methyl-2H-benzo[b][1,4]oxazin-3(4H)-one], the IC50 was below 25 nM. Under `CN1C(=O)COc2cc(-c3ccc(NC(=O)c4c(F)cccc4F)nc3)c(C3CC3)cc21` [Example 115, N-(5-(6-Cyclopropyl-4-methyl-3-oxo-3,4-dihydro-2H-benzo[b][1,4]oxazin-7-yl)pyridin-2-yl)-2,6-difluorobenzamide] stands below 25 nM; under `CN1C(=O)COc2cc(-c3cnc(NC(=O)c4c(F)cccc4F)cn3)c(C3CC3)cc21` [Example 116, N-(5-(6-Cyclopropyl-4-methyl-3-oxo-3,4-dihydro-2H-benzo[b][1,4]oxazin-7-yl)pyrazin-2-yl)-2,6-difluorobenzamide], below 25 nM; under `CN1C(=O)COc2cc(-c3cnc(NC(=O)c4c(F)cccc4Cl)cn3)c(C3CC3)cc21` [Example 117, 2-Chloro-N-(5-(6-cyclopropyl-4-methyl-3-oxo-3,4-dihydro-2H-benzo[b][1,4]oxazin-7-yl)pyrazin-2-yl)-6-fluorobenzamide], 25 to 50 nM.

As for `CN1C(=O)COc2cc(-c3ccc(C(=O)Nc4c(F)cncc4F)cc3)c(C3CC3)cc21` [Example 119, 4-(6-Cyclopropyl-4-methyl-3-oxo-3,4-dihydro-2H-benzo[b][1,4]oxazin-7-yl)-N-(3,5-difluoropyridin-4-yl)benzamide], the IC50 lay within 100 to 500 nM.

Compound `CCc1cc2c(cc1-c1cnc(NC(=O)c3c(F)cccc3F)cn1)OCC(=O)N2C` [Example 121, N-(5-(6-Ethyl-4-methyl-3-oxo-3,4-dihydro-2H-benzo[b][1,4]oxazin-7-yl)pyrazin-2-yl)-2,6-difluorobenzamide] gave an IC50 below 25 nM. Under `CCc1cc2c(cc1-c1ccc(NC(=O)c3c(F)cccc3F)nc1)OCC(=O)N2C` [Example 122, N-(5-(6-Ethyl-4-methyl-3-oxo-3,4-dihydro-2H-benzo[b][1,4]oxazin-7-yl)pyridin-2-yl)-2,6-difluorobenzamide] stands below 25 nM; under `Cc1cc2c(cc1-c1ccc(NC(=O)c3c(F)cccc3F)cc1)OCC(=O)N2C` [Example 123, N-(4-(4,6-Dimethyl-3-oxo-3,4-dihydro-2H-benzo[b][1,4]oxazin-7-yl)phenyl)-2,6-difluorobenzamide], below 25 nM. Under `Cc1cc2c(cc1-c1cnc(NC(=O)c3c(F)cccc3F)cn1)OCC(=O)N2C` [Example 126, N-(5-(4,6-Dimethyl-3-oxo-3,4-dihydro-2H-benzo[b][1,4]oxazin-7-yl)pyrazin-2-yl)-2,6-difluorobenzamide] stands 100 to 500 nM; under `Cc1cc2c(cc1-c1ccc(NCc3c(F)cccc3F)cc1)OCC(=O)N2C` [Example 127, 7-(4-((2,6-Difluorobenzyl)amino)phenyl)-4,6-dimethyl-2H-benzo [b][1,4]oxazin-3(4H)-one], 50 to 100 nM. In turn, `CN1C(=O)COc2cc(C3CC3)c(-c3ccc(NC(=O)c4c(F)cccc4F)cc3)cc21` [Example 131, N-(4-(7-Cyclopropyl-4-methyl-3-oxo-3,4-dihydro-2H-benzo[b][1,4]oxazin-6-yl)phenyl)-2,6-difluorobenzamide] had an IC50 of 50 to 100 nM.

In turn, `CCc1cc2c(cc1-c1ccc(NC(=O)c3c(F)cccc3F)cc1)N(C)C(=O)CO2` [Example 132, N-(4-(7-Ethyl-4-methyl-3-oxo-3,4-dihydro-2H-benzo[b][1,4]oxazin-6-yl)phenyl)-2,6-difluorobenzamide] showed an IC50 of 25 to 50 nM.

Consider `CCc1cc2c(cc1-c1cnc(NC(=O)c3c(F)cccc3F)cn1)N(C)C(=O)CO2` [Example 133, N-(5-(7-Ethyl-4-methyl-3-oxo-3,4-dihydro-2H-benzo[b][1,4]oxazin-6-yl)pyrazin-2-yl)-2,6-difluorobenzamide], for which the IC50 lay in the range of 100 to 500 nM. On to `CCc1cc2c(cc1-c1ccc(C(=O)Nc3c(F)cncc3F)cc1)N(C)C(=O)CO2` [Example 135, N-(3,5-Difluoropyridin-4-yl)-4-(7-ethyl-4-methyl-3-oxo-3,4-dihydro-2H-benzo[b][1,4]oxazin-6-yl)benzamide], for which the IC50 fell in the range of 100 to 500 nM. On to `Cc1cc2oc(=O)n(C)c2cc1-c1ccc(C(=O)Nc2c(F)cccc2F)s1` [Example 140, N-(2,6-Difluorophenyl)-5-(3,6-dimethyl-2-oxo-2,3-dihydrobenzo[d]oxazol-5-yl)thiophene-2-carboxamide], for which the IC50 was below 25 nM.

The IC50 is the concentration at which inhibition is half-maximal. A high value points to a need for much substance.
